Data published in patent US20250051851A1, “NOVEL BIOMARKER FOR DETECTION OF CANCER METASTASIS” (INDUSTRY-ACADEMIC COOPERATION FOUNDATION, YONSEI UNIVERSITY, priority 2021, published 2025).

Test system: IKZF1 and IKZF3
Assay: In vivo experiment using IKZF inhibitor: counting circulating tumor cells in melanoma mouse model
Settings: melanoma mouse model (B16F10 cells injected into paw pad); injection of the drug; FIG. 12

SMILES: Nc1cccc2c1C(=O)N(C1CCC(=O)NC1=O)C2=O (stereo not shown) [pomalidomide]
- number of circulating tumor cells: decreased
